Test results from patent US20250230147A1, “LACTAMS AS CBL-B INHIBITORS” (Genentech, Inc., priority 2021, published 2025).
Structures can show the parent of a compound that is named as a salt.

Assays:
c-Cbl = c-Cbl (Homo sapiens (Human), UniProt P22681); assay: C-Cbl LCK Ub TR-FRET assay (c-cbl Lck HTRF); type: biochemical; details: for (fold-selectivity): C-cbl Lck HTRF IC50 relative to Cbl-b Lck HTRF IC50
How it was run: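 After the ubiquitination reaction, detection mixture was added and plates incubated 20 min at room temperature before reading. IC50 values were calculated with wells lacking LCK as the low control and DMSO as the high control.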

Cbl-b = Cbl-b (Homo sapiens (Human), UniProt Q13191); assay: Cbl-b LCK Ub TR-FRET assay (Cbl-b Lck HTRF); type: biochemical
Sequence of Cbl-b (Q13191 40-426): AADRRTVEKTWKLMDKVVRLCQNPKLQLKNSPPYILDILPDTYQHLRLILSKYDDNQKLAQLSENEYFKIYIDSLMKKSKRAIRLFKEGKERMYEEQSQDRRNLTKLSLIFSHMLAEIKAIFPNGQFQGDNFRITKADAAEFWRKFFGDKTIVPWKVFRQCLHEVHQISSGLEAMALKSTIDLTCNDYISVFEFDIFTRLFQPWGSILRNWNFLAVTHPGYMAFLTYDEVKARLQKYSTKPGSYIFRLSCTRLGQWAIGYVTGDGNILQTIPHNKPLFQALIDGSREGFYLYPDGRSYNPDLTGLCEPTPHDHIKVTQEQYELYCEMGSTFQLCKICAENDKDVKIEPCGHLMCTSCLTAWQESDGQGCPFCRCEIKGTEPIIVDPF
How it was run: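 Biotin-Cbl-b preincubated with compound (10-point 3-fold series) 60 min, then His-LCK with 1 mM ATP (2× mixture) added for 90 min at room temperature. Ubiquitination detected by TR-FRET using HA-ubiquitin/UBE2D2 adduct, anti-HA-D2 and streptavidin-Eu; IC50 normalised to no-LCK and DMSO controls.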

Sequence of c-Cbl (P22681 47-435): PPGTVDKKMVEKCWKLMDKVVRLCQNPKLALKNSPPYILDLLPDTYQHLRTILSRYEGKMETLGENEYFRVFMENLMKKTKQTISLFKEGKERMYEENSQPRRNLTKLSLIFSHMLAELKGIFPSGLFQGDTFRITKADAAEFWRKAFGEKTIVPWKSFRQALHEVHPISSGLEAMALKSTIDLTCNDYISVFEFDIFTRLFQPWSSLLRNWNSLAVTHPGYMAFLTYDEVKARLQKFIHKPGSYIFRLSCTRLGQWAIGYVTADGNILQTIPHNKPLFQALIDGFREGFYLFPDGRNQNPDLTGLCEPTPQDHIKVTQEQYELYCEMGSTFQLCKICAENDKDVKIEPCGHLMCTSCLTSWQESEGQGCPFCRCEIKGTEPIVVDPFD

Row | IC50 (c-Cbl) [µM] | (fold-selectivity) (c-Cbl) | IC50 (Cbl-b) [µM] | SMILES
1 | 1.1 | (0.45x) | 2.4 | CN(C)CCNc1cc(C2(Cc3nncn3C)CCC2)cc(N2Cc3c(cc(CNC4(C)CCC4)cc3C(F)(F)F)C2=O)n1 [Compound 337, 2-(6-((2-(dimethylamino)ethyl)amino)-4-(1-((4-methyl-4H-1,2,4-triazol-3-yl)methyl)cyclobutyl)pyridin-2-yl)-6-(((1-methylcyclobutyl)amino)methyl)-4-(trifluoromethyl)isoindolin-1-one]
2 | 0.14 | (1.1x) | 0.13 | Cn1cnnc1CC1(c2cc(NCCN3CCCC3=O)nc(N3Cc4c(cc(CNC5(C)CCC5)cc4C(F)(F)F)C3=O)c2)CCC1 [Compound 338, 2-(4-(1-((4-methyl-4H-1,2,4-triazol-3-yl)methyl)cyclobutyl)-6-((2-(2-oxopyrrolidin-1-yl)ethyl)amino)pyridin-2-yl)-6-(((1-methylcyclobutyl)amino)methyl)-4-(trifluoromethyl)isoindolin-1-one]
3 | 0.36 | (0.68x) | 0.53 | Cn1cnnc1CC1(c2cc(NCC3CCNCC3)nc(N3Cc4c(cc(CNC5(C)CCC5)cc4C(F)(F)F)C3=O)c2)CCC1 [Compound 339, 2-(4-(1-((4-methyl-4H-1,2,4-triazol-3-yl)methyl)cyclobutyl)-6-((piperidin-4-ylmethyl)amino)pyridin-2-yl)-6-(((1-methylcyclobutyl)amino)methyl)-4-(trifluoromethyl)isoindolin-1-one]
4 | 0.32 | (0.74x) | 0.44 | Cn1cnnc1CC1(c2cc(NCCN3CCOCC3)nc(N3Cc4c(cc(CNC5(C)CCC5)cc4C(F)(F)F)C3=O)c2)CCC1 [Compound 340, 2-(4-(1-((4-methyl-4H-1,2,4-triazol-3-yl)methyl)cyclobutyl)-6-((2-morpholinoethyl)amino)pyridin-2-yl)-6-(((1-methylcyclobutyl)amino)methyl)-4-(trifluoromethyl)isoindolin-1-one]
5 | 0.01 | (0.74x) | 0.014 | Cn1cnnc1CC1(c2cccc(N3Cc4c(cc(CNC5(C)CC(F)C5)cc4C(F)(F)F)C3=O)c2)CC(F)(F)C1 (stereo not shown) [Compound 341, 2-(3-(3,3-difluoro-1-((4-methyl-4H-1,2,4-triazol-3-yl)methyl)cyclobutyl)phenyl)-6-(((3-fluoro-1-methylcyclobutyl)amino)methyl)-4-(trifluoromethyl)isoindolin-1-one]
6 | 0.0095 | (0.74x) | 0.013 | CCCc1cc(C2(Cc3nncn3C)CCC2)cc(N2Cc3c(cc(CNC4(C)CCC4)cc3C(F)(F)F)C2=O)n1 [Compound 343, 2-(4-(1-((4-methyl-4H-1,2,4-triazol-3-yl)methyl)cyclobutyl)-6-propylpyridin-2-yl)-6-(((1-methylcyclobutyl)amino)methyl)-4-(trifluoromethyl)isoindolin-1-one]
7 | 0.01 | (0.92x) | 0.011 | CCCCc1cc(C2(Cc3nncn3C)CCC2)cc(N2Cc3c(cc(CNC4(C)CCC4)cc3C(F)(F)F)C2=O)n1 [Compound 346, 2-(6-butyl-4-(1-((4-methyl-4H-1,2,4-triazol-3-yl)methyl)cyclobutyl)pyridin-2-yl)-6-(((1-methylcyclobutyl)amino)methyl)-4-(trifluoromethyl)isoindolin-1-one]
8 | 0.013 | (1.0x) | 0.013 | CC(C)CNc1cc(C2(Cc3nncn3C)CCC2)cc(N2Cc3c(cc(CNC4(C)CCC4)cc3C(F)(F)F)C2=O)n1 [Compound 348, 2-(6-(isobutylamino)-4-(1-((4-methyl-4H-1,2,4-triazol-3-yl)methyl)cyclobutyl)pyridin-2-yl)-6-(((1-methylcyclobutyl)amino)methyl)-4-(trifluoromethyl)isoindolin-1-one]
9 | 0.016 | (0.57x) | 0.028 | Cn1cnnc1CC1(c2cc(-c3ccc4ccccc4c3)nc(N3Cc4c(cc(CNC5(C)CCC5)cc4C(F)(F)F)C3=O)c2)CCC1 [Compound 350, 2-(4-(1-((4-methyl-4H-1,2,4-triazol-3-yl)methyl)cyclobutyl)-6-(naphthalen-2-yl)pyridin-2-yl)-6-(((1-methylcyclobutyl)amino)methyl)-4-(trifluoromethyl)isoindolin-1-one]

Second part, the compound before the results:

Row | SMILES | IC50 (c-Cbl) [µM] | (fold-selectivity) (c-Cbl) | IC50 (Cbl-b) [µM]
10 | CC(=O)Nc1cc(C2(Cc3nncn3C)CCC2)cc(N2Cc3c(cc(CN4CCN(C)C[C@@H]4C(C)C)cc3C(F)(F)F)C2=O)n1 [Compound 330, (S)-N-(6-(6-((2-isopropyl-4-methylpiperazin-1-yl)methyl)-1-oxo-4-(trifluoromethyl)isoindolin-2-yl)-4-(1-((4-methyl-4H-1,2,4-triazol-3-yl)methyl)cyclobutyl)pyridin-2-yl)acetamide] | 1.2 | (1.2x) | 1
11 | Cn1cnnc1CC1(c2cccc(N3Cc4c(cc(CNC5(C)COC5)cc4C(F)(F)F)C3=O)c2)CC(F)(F)C1 [Compound 332, 2-(3-(3,3-difluoro-1-((4-methyl-4H-1,2,4-triazol-3-yl)methyl)cyclobutyl)phenyl)-6-(((3-methyloxetan-3-yl)amino)methyl)-4-(trifluoromethyl)isoindolin-1-one] | 0.034 | (1.2x) | 0.028
12 | CC(C)[C@H]1CN(C)CCN1Cc1cc2c(c(C(F)(F)F)c1)CN(c1cc(C3(Cc4nncn4C)CCC3)cc(NC(=O)CCl)n1)C2=O [Compound 333, (S)-2-chloro-N-(6-(6-((2-isopropyl-4-methylpiperazin-1-yl)methyl)-1-oxo-4-(trifluoromethyl)isoindolin-2-yl)-4-(1-((4-methyl-4H-1,2,4-triazol-3-yl)methyl)cyclobutyl)pyridin-2-yl)acetamide] | 0.053 | (1.0x) | 0.052
13 | Cn1cnnc1CC1(c2cccc(N3Cc4c(cc(CNCC5CC5)cc4C(F)(F)F)C3=O)c2)CC(F)(F)C1 [Compound 334, 6-(((cyclopropylmethyl)amino)methyl)-2-(3-(3,3-difluoro-1-((4-methyl-4H-1,2,4-triazol-3-yl)methyl)cyclobutyl)phenyl)-4-(trifluoromethyl)isoindolin-1-one] | 0.0081 | (0.72) x | 0.011
14 | Cn1cnnc1CC1(c2cc(NCC3CCOCC3)nc(N3Cc4c(cc(CNC5(C)CCC5)cc4C(F)(F)F)C3=O)c2)CCC1 [Compound 335, 2-(4-(1-((4-methyl-4H-1,2,4-triazol-3-yl)methyl)cyclobutyl)-6-(((tetrahydro-2H-pyran-4-yl)methyl)amino)pyridin-2-yl)-6-(((1-methylcyclobutyl)amino)methyl)-4-(trifluoromethyl)isoindolin-1-one] | 0.19 | (1.0x) | 0.18
15 | COCCOCCNc1cc(C2(Cc3nncn3C)CCC2)cc(N2Cc3c(cc(CNC4(C)CCC4)cc3C(F)(F)F)C2=O)n1 [Compound 336, 2-(6-((2-(2-methoxyethoxy)ethyl)amino)-4-(1-((4-methyl-4H-1,2,4-triazol-3-yl)methyl)cyclobutyl)pyridin-2-yl)-6-(((1-methylcyclobutyl)amino)methyl)-4-(trifluoromethyl)isoindolin-1-one] | 0.023 | (0.70x) | 0.033
16 | CC(C)Cc1cc(C2(Cc3nncn3C)CCC2)cc(N2Cc3c(cc(CNC4(C)CCC4)cc3C(F)(F)F)C2=O)n1 [Compound 342, 2-(6-isobutyl-4-(1-((4-methyl-4H-1,2,4-triazol-3-yl)methyl)cyclobutyl)pyridin-2-yl)-6-(((1-methylcyclobutyl)amino)methyl)-4-(trifluoromethyl)isoindolin-1-one formate] | 0.0079 | – | 0.011
17 | Cn1cnnc1CC1(c2cccc(N3Cc4c(cc(CNC5(C)CCCC5)cc4C(F)(F)F)C3=O)c2)CC(F)(F)C1 [Compound 344, 2-(3-(3,3-difluoro-1-((4-methyl-4H-1,2,4-triazol-3-yl)methyl)cyclobutyl)phenyl)-6-(((1-methylcyclopentyl)amino)methyl)-4-(trifluoromethyl)isoindolin-1-one formate] | 0.013 | – | 0.016
18 | Cn1cnnc1CC1(c2cc(Cl)nc(N3Cc4c(cc(CNC5(C)CCC5)cc4C(F)(F)F)C3=O)c2)CCC1 [Compound 351, 2-(6-chloro-4-(1-((4-methyl-4H-1,2,4-triazol-3-yl)methyl)cyclobutyl)pyridin-2-yl)-6-(((1-methylcyclobutyl)amino)methyl)-4-(trifluoromethyl)isoindolin-1-one formate] | 0.019 | – | 0.033
19 | Cn1cnnc1CC1(c2cccc(N3Cc4c(cc(CNCC5(C)CC5)cc4C(F)(F)F)C3=O)c2)CC(F)(F)C1 [Compound 352, 2-(3-(3,3-difluoro-1-((4-methy-4H-1,2,4-triazol-3-yl)methyl)cyclobutyl)phenyl)-6-((((1-methylcyclopropyl)methyl)amino)methyl)-4-(trifluoromethyl)isoindolin-1-one formate] | 0.0067 | – | 0.012
20 | CC1CC(C)(NCc2cc3c(c(C(F)(F)F)c2)CN(c2cccc(C4(Cc5nncn5C)CC(F)(F)C4)c2)C3=O)C1 (stereo not shown) [Compound 353, 2-(3-(3,3-difluoro-1-((4-methyl-4H-1,2,4-triazol-3-yl)methyl)cyclobutyl)phenyl)-6-(((1,3-dimethylcyclobutyl)amino)methyl)-4-(trifluoromethyl)isoindolin-1-one formate] | 0.0066 | – | 0.012
